Patent publication US5393774A, “Phenylethanolamines, pharmaceutical compositions containing these compounds and process for preparing them” (priority 1990, dated 1995)
Where two headings read alike, the source gives them in different places.

Test system: bronchospasm triggered by intravenous administration of 20 μg/kg of acetyl-choline
Assay: broncholytic effect, test arrangement according to KONZETT and ROSSLER on anesthetized guinea-pigs
Type: in vivo
Details: Cavia porcellus, read-out: ED50 (broncholytic effect, reduction in acetyl-choline bronchospasm)
[1] = after i.v. administration, anesthetized guinea-pigs, 20 μg/kg acetyl-choline i.v., linear regression analysis

Protocol: The broncholytic effect was investigated by the test arrangement according to KONZETT and ROSSLER (Arch. exp. Path. Pharmak. 195, 71 (1940)) on anesthetized guinea-pigs. An ED50 was calculated from the average percentage reduction, achieved with the various intravenous doses, in the bronchospasm triggered by intravenous administration of 20 μg/kg of acetyl-choline, by linear regression analysis according to LINDER (Statistische Methoden, 4th Edition, pp. 148-162, Birkhauser, Basel 1964):

Structure (SMILES)	ED50 [µg/kg]	ED50 [1] [µg/kg]
COc1ccc(CC(C)NCC(O)c2cc(F)c(N)c(C#N)c2)cc1.Cl (stereo not shown) [Substance C, 1-(4-amino-3-cyano-5-fluoro-phenyl)-2-[2-(4-methoxyphenyl)-1-methyl-ethylamino]-ethanol-hydrochloride]	0.16	–
Cl.N#Cc1cc(C(O)CNCCCCCCOCCCCc2ccccc2)cc(F)c1N (stereo not shown) [Substance B, 1-(4-amino-3-cyano-5-fluoro-phenyl)-2-[6-(4-phenylbutoxy)-hexyl-amino]ethanol-hydrochloride]	–	2.5
CCOC(=O)Nc1c(F)cc(C(O)CNCCCCCCOCCCCc2ccccc2)cc1C#N.Cl (stereo not shown) [Substance A, 1-(4-ethoxycarbonylamino-3-cyano-5-fluoro-phenyl)-2-[6-(4-phenyl-butoxy)hexylamino]-ethanol-hydrochloride]	–	10.2
Nc1c(Cl)cc(C(O)CNCCCCCCOCCCCc2ccccc2)cc1Cl (stereo not shown) [V]	–	> 400
